From patent publication US20220364179A1, “METHODS AND COMPOSITIONS FOR ASSESSING AND PREDICTING THERAPEUTIC RESPONSE” (Lankenau Institute for Medical Research, priority 2019, published 2022)

What was measured:
[1] = tested on: mouse tumor models; conditions: cited from earlier work
[2] = tested on: brain metastases; assay: whole brain radiotherapy with low-dose chloroquine in patients with brain metastases; type: in vivo, human; conditions: low-dose chloroquine in continuous cycles one week before and during standard of care irradiation; N=20; P=0.07
[3] = tested on: melanoma; assay: melanoma cohort, response to therapy by IDO2 genotype; type: in vivo, human
Description: In the melanoma cohort, 84 patients were genotyped with 6 patients returning uncertain results. The remaining 78 patients, including 52 males and 26 females, were treated and analyzed in a similar way to the PDAC patients of Example 3 above. The results of the 46 patients, including 31 males and 15 females, in this cohort that responded positively to IDO and/or other indicated therapies were also analyzed.

[4] = tested on: metastatic adenocarcinoma of the pancreas; assay: Phase I/II trial NCT02077881: indoximod with gemcitabine plus nab-paclitaxel, responses by IDO2 genotype; type: in vivo, human; conditions: for PR + CR (positive response), row % / PR + CR, number of patients: + gemcitabine plus nab-paclitaxel
Description: The treatment protocol was as described in ClinicalTrials.gov Identifier NCT02077881, which was a Phase I/II trial designed to evaluate the combination of the immunotherapeutic agent indoximod (an IDO inhibitor) and the standard of care chemotherapy gemcitabine plus nab-paclitaxel in subjects with metastatic adenocarcinoma of the pancreas. Participants received oral indoximod (600 mg, […], or 1200 mg according to their assigned dose cohort) twice daily for 28 days concurrently with IV Nab-paclitaxel 125 mg/m^2 given intravenously over 30-40 minutes for 3 weeks (days 1, 8 and 15) with 1 week rest, followed by gemcitabine 1000 mg/m^2 given intravenously over 30 minutes for 3 weeks (days 1, 8 and 15) with 1 week rest. All subjects will receive the standard 28-day gemcitabine plus nab-paclitaxel regimen. Twice daily oral indoximod was administered concurrently in continuous 28 day cycles. Patients continued until they experienced disease progression or significant toxicity.
Genotyping to detect the wild-type IDO2 alleles or a polymorphisms in one or both alleles was performed using a protocol as provided in Example 2.
Two-sample tests of independent proportions were performed to compare the percentage of positive responders between two groups. Observed versus expected genotype distributions were compared using one-sample tests of proportions. The significance level was set to 0.05 and all tests were one-sided except for the tests comparing response by sex and the tests comparing observed and expected genotypes. Analyses were performed in Stata/MP 15.1 (StataCorp LP., Texas, USA). See the data in FIG. 6A -6D.

[5] = tested on: rheumatoid arthritis; conditions: mouse model of rheumatoid arthritis; Merlo et al. 2014; cited from earlier work
[6] = Females, all genotypes, no exclusions, Total 40
[7] = Females, excludes (+/p or p/p) uncertain genotype, Total 32
[8] = Males, all genotypes, no exclusions, Total 67
[9] = Males, excludes (+/p or p/p) uncertain genotype, Total 47
[10] = genotype +/+ or +/p, both sexes, Total 56
[11] = genotype +/+ or +/p, females only, Total 22
[12] = genotype +/+ or +/p, males only, Total 34
[13] = genotype +/+, both sexes, excludes uncertain genotype, Total 15
[14] = genotype +/+, females only, excludes uncertain genotype, Total 7
[15] = genotype +/+, males only, excludes uncertain genotype, Total 8
[16] = genotype +/p, both sexes, excludes uncertain genotype, Total 41
[17] = genotype +/p, females only, excludes uncertain genotype, Total 15
[18] = genotype +/p, males only, excludes uncertain genotype, Total 26
[19] = genotype p/p, both sexes, excludes uncertain genotype, Total 23
[20] = genotype p/p, females only, excludes uncertain genotype, Total 10
[21] = genotype p/p, males only, excludes uncertain genotype, Total 13

Cn1cc(CC(N)C(=O)O)c2ccccc21 [D, L-1MT]
effect on efficacy of radiotherapy [1]: improve the efficacy of radiotherapy

CCN(CC)CCCC(C)Nc1ccnc2cc(Cl)ccc12 (stereo not drawn) [chloroquine]
survival outcomes [2]: trend in improvement of survival outcomes

Cn1cc(C[C@H](N)C(=O)O)c2ccccc21 [indoximod, 1-methyl-tryptophan]
more frequent response than the expected population ([3]; female cohort, patients with the +/+ or +/p alleles): 41% | less frequent response than the expected population ([3]; female patients without the active allele (p/p)): 70% | overall survival ([3]; inactive IDO2 genetic configuration, adjuvant radiotherapy including treatment with indoximod): extended overall survival | PR + CR (positive response), row % [4, 6]: 60.0% | PR + CR, number of patients [4, 6]: 24 | PR + CR (positive response), row % [4, 7]: 62.5% | PR + CR, number of patients [4, 7]: 20 | PR + CR (positive response), row % [4, 8]: 43.3% | PR + CR, number of patients [4, 8]: 29 | PR + CR (positive response), row % [4, 9]: 51.1% | PR + CR, number of patients [4, 9]: 24 | PR + CR, number of patients ([4]; both sexes, excludes (+/p or p/p) uncertain genotype, Total 79): 44 | PR + CR (positive response), row % ([4]; both sexes, includes uncertain genotype, Total 51): 35.3% | PR + CR, number of patients ([4]; genotype (+/p or p/p) or p/p, both sexes, includes uncertain genotype, Total 51): 18 | PR + CR, number of patients ([4]; genotype (+/p or p/p) or p/p, males only, includes uncertain genotype, Total 33): 9 | PR + CR (positive response), row % [4, 10]: 62.5% | PR + CR, number of patients [4, 10]: 35 | PR + CR (positive response), row % [4, 11]: 68.2% | PR + CR, number of patients [4, 11]: 15 | PR + CR (positive response), row % [4, 12]: 58.8% | PR + CR, number of patients [4, 12]: 20 | PR + CR (positive response), row % [4, 13]: 53.3% | PR + CR, number of patients [4, 13]: 8 | PR + CR (positive response), row % [4, 14]: 42.9% | PR + CR, number of patients [4, 14]: 3 | PR + CR (positive response), row % [4, 15]: 62.5% | PR + CR, number of patients [4, 15]: 5 | PR + CR (positive response), row % [4, 16]: 65.9% | PR + CR, number of patients [4, 16]: 27 | PR + CR (positive response), row % [4, 17]: 80.0% | PR + CR, number of patients [4, 17]: 12 | PR + CR (positive response), row % [4, 18]: 57.7% | PR + CR, number of patients [4, 18]: 15 | PR + CR (positive response), row % [4, 19]: 39.1% | PR + CR, number of patients [4, 19]: 9 | PR + CR (positive response), row % [4, 20]: 50.0% | PR + CR, number of patients [4, 20]: 5 | PR + CR (positive response), row % [4, 21]: 30.8% | PR + CR, number of patients [4, 21]: 4 | PR + CR (positive response), row % ([4]; males only, includes uncertain genotype, Total 33): 27.3% | PR + CR, number of patients ([4]; whole cohort, both sexes, no exclusions, Total 107): 53 | therapeutic responses, outcomes stratified to IDO2 genotype ([4]; in combination with gemcitabine in PDAC patients, patients harboring functional IDO2 alleles, initial cohort): trend in improved therapeutic responses | therapeutic responses after deletion of the IDO2 gene [5]: ablate therapeutic responses
